Measurements from ChEMBL document CHEMBL4354790, “Tailored therapeutics based on 1,2,3-1H-triazoles: a mini review” (Medchemcomm, 2019).
Where a SMILES comes first, the peptide text is derived from it.

How the values were obtained:
[1] = biological target: Signal transducer and activator of transcription 3 (Homo sapiens, UniProt P40763); assay: Inhibition of STAT3 (unknown origin)
[2] = biological target: Protease (Human immunodeficiency virus 1, UniProt Q9YQ12); assay: Inhibition of HIV-1 protease
[3] = biological target: Protease (Human immunodeficiency virus 1, UniProt Q9YQ12, G48V); assay: Inhibition of HIV-1 protease G48V mutant
[4] = biological target: Protease (Human immunodeficiency virus 1, UniProt Q9YQ12, V82F); assay: Inhibition of HIV-1 protease V82F mutant
[5] = biological target: Protease (Human immunodeficiency virus 1, UniProt Q9YQ12, V82A); assay: Inhibition of HIV-1 protease V82A mutant
[6] = biological target: Carbonic anhydrase; assay: Inhibition of carbonic anhydrase (unknown origin); assay type: protein assay, Homo sapiens
[7] = biological target: Telomerase reverse transcriptase (Homo sapiens, UniProt O14746); assay: Inhibition of telomerase activity in human A2780 cells incubated for 10 mins by SYBR Green 1 staining based TRAP assay; assay type: cell-based
[8] = biological target: T1, Tyrosinase (Agaricus bisporus, UniProt O42713); assay: Inhibition of mushroom tyrosinase using L-DOPA as substrate
T1 sequence (O42713 whole entry): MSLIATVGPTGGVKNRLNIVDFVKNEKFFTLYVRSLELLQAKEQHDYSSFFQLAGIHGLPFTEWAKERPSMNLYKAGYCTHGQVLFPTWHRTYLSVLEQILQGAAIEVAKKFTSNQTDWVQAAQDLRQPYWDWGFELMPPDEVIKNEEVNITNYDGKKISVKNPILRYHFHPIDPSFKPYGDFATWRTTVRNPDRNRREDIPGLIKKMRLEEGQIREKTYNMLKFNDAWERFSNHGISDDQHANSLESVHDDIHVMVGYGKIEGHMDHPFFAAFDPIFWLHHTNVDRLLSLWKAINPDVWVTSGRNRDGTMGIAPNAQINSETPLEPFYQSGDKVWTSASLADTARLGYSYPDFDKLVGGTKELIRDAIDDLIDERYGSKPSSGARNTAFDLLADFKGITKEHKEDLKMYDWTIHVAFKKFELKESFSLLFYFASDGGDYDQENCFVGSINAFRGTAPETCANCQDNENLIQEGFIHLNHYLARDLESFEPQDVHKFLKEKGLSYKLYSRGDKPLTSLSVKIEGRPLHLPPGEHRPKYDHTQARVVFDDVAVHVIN

[9] = biological target: D-amino-acid oxidase (Homo sapiens, UniProt P14920); assay: Inhibition of human DAO
D-amino-acid oxidase, sequence (P14920 whole entry): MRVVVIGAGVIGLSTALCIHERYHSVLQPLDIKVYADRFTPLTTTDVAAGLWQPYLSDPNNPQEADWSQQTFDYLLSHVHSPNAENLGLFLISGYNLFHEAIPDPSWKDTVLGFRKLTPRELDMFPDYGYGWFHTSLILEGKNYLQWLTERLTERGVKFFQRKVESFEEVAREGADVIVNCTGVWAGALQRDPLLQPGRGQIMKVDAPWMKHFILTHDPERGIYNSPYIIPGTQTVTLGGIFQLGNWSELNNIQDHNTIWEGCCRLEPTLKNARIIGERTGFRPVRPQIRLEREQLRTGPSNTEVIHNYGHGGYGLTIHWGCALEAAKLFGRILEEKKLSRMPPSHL

Telomerase reverse transcriptase, sequence (O14746 whole entry): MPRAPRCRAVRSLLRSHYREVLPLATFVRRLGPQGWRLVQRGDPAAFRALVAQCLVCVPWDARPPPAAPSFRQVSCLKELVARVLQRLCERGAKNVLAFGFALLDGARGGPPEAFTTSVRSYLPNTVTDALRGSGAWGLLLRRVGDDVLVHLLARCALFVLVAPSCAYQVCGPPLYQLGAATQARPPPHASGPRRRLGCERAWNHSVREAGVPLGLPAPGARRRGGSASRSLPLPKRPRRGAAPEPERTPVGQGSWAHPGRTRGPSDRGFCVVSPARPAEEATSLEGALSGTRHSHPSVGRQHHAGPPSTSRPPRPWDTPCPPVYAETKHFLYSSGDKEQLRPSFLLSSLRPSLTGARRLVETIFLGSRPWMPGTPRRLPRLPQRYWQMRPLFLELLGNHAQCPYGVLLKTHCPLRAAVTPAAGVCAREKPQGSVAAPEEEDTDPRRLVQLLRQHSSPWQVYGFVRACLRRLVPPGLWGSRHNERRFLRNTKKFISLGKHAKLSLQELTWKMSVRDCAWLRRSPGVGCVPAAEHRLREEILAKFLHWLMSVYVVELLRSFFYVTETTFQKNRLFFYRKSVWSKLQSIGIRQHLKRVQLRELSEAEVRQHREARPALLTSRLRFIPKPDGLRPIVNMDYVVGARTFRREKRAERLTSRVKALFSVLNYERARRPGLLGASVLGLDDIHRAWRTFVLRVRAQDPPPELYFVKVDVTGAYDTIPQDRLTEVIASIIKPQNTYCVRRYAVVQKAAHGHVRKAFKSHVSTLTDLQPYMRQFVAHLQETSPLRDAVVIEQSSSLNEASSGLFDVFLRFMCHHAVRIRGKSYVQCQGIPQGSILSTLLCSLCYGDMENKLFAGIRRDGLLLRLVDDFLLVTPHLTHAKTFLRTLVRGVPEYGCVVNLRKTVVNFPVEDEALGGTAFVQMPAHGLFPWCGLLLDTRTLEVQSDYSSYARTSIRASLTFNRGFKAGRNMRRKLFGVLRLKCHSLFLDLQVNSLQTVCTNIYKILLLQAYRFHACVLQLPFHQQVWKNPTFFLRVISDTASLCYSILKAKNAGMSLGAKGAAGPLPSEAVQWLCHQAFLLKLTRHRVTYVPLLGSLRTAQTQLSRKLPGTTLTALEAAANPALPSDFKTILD
Signal transducer and activator of transcription 3, sequence (P40763 whole entry): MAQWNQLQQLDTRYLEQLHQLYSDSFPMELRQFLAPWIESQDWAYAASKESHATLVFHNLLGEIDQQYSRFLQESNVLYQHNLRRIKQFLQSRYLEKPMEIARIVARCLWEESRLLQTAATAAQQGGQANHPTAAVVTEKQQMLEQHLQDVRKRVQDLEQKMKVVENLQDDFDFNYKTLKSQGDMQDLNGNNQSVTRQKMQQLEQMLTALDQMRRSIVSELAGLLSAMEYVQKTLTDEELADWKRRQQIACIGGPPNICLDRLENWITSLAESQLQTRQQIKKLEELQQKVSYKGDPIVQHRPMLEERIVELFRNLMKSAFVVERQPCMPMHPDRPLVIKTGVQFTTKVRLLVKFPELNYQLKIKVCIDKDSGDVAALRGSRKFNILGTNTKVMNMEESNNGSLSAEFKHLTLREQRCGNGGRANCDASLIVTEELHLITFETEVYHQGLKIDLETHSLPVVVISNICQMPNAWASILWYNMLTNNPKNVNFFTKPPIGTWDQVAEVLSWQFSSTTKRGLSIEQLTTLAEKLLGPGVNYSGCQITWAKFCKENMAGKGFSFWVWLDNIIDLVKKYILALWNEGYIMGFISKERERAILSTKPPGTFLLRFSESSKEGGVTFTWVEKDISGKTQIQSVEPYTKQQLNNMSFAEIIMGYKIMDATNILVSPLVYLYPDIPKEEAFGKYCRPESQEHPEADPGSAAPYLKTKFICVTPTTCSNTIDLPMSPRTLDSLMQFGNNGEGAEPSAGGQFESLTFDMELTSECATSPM
Protease (Human immunodeficiency virus 1, UniProt Q9YQ12, G48V), sequence (Q9YQ12 entry or part of it G48V): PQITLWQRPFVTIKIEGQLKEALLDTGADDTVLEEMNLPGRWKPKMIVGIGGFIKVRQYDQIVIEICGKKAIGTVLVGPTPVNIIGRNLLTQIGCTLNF
Protease (Human immunodeficiency virus 1, UniProt Q9YQ12, V82F), sequence (Q9YQ12 entry or part of it V82F): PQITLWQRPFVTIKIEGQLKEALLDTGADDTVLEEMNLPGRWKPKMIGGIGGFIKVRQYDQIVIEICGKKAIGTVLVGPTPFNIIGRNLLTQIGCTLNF
Protease (Human immunodeficiency virus 1, UniProt Q9YQ12, V82A), sequence (Q9YQ12 entry or part of it V82A): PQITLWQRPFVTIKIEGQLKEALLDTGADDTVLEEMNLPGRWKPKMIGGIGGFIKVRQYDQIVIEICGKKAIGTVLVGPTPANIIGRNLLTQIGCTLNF
Protease (Human immunodeficiency virus 1, UniProt Q9YQ12), sequence (Q9YQ12 whole entry): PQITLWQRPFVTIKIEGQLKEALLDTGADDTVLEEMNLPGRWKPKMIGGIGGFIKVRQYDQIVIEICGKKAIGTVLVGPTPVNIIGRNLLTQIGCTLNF

For `COC(=O)[C@H](CCCCN)NC(=O)[C@@H](NC(=O)[C@@H](CCCCN)NC(=O)[C@@H](NC(=O)[C@@H](Cc1ccc(OP(=O)(O)O)cc1)NC(C)=O)C(C)C)[C@@H](C)O`, which Ki [1] is on record?
Its Ki is 21.9 µM.

For `COc1ccc(S(=O)(=O)N(CC(C)C)C[C@H](O)[C@@H](Cc2ccccc2)n2cc(COC(=O)N[C@H]3c4ccccc4C[C@H]3O)nn2)cc1`, which Ki [2] is on record?
The Ki was 0.0017 µM.

And the Ki [3]?
The Ki was 0.0017 µM.

And the Ki [4]?
Its Ki is 0.0017 µM.

And the Ki [5]?
Its Ki is 0.0017 µM.

Which Ki [6] does the source give for `CC(C)[C@H](C(=O)NCc1ccccc1)n1cc(-c2ccc(S(N)(=O)=O)cc2)nn1` here?
Its Ki is 0.0002 µM.

How did the EC50 [7] turn out when `CCN(CC)CCC(=O)Nc1ccc(-n2cc(-c3cccc(-c4cn(-c5ccc(NC(=O)CCN(CC)CC)cc5)nn4)c3)nn2)cc1` was run?
Its EC50 is 23.5 µM.

Which IC50 [8] does the source give for `CC(C)[C@H]1C(=O)N2CCC[C@H]2c2cn(nn2)[C@@H](Cc2ccc(OCc3ccccc3)cc2)C(=O)N2CCC[C@H]2c2cn1nn2` here?
The IC50 was 1600 µM.

Which IC50 [8] does the source give for `CC(C)[C@@H]1NC(=O)[C@@H]2CCCN2C(=O)[C@H](Cc2ccc(OCc3ccccc3)cc2)n2cc(nn2)[C@@H]2CCCN2C1=O` here?
Its IC50 is 500 µM.

With `O=C(CCN1CCCC1)Nc1ccc(-n2cc(-c3cccc(-c4cn(-c5ccc(NC(=O)CCN6CCCC6)cc5)nn4)c3)nn2)cc1` as the compound, how does the EC50 [7] read?
Its EC50 is 13.3 µM.

How did the EC50 [7] turn out when `O=C(CCN1CCCCC1)Nc1ccc(-n2cc(-c3cccc(-c4cn(-c5ccc(NC(=O)CCN6CCCCC6)cc5)nn4)c3)nn2)cc1` was run?
Its EC50 is 17.1 µM.

With `COC(=O)/C(Cc1ccc(O)cc1)=N\OCCc1cn(CC(=O)NC(Cc2ccccc2)C(=O)O)nn1` (stereo not given) as the compound, how does the Ki [9] read?
Its Ki is 1000 µM.

Which Ki [6] does the source give for `NS(=O)(=O)c1ccc(-c2cn([C@H](Cc3ccccc3)C(=O)NCCc3ccsc3)nn2)cc1` here?
Its Ki is 0.0002 µM.

Which Ki [1] does the source give for `CC(=O)N[C@H](Cc1ccc(OP(=O)(O)O)cc1)C(=O)N[C@@H](C(=O)N[C@@H]1CCCCn2cc(nn2)C[C@H](C(=O)N[C@@H](Cc2ccccc2)C(N)=O)NC(=O)[C@H]([C@@H](C)O)NC1=O)C(C)C` here?
Its Ki is 7.3 µM.

With `CC(C)[C@@H]1NC(=O)[C@@H]2CCCN2C(=O)[C@H](Cc2ccc(O)cc2)NC(=O)[C@@H]2CCCN2C1=O` (cyclo(PVPY)) as the compound, how does the IC50 [8] read?
The IC50 was 1500 µM.
